Publication PMC10893631, “Receptor-based pharmacophore modeling, molecular docking, synthesis and biological evaluation of novel VEGFR-2, FGFR-1, and BRAF multi-kinase inhibitors” (BMC Chemistry, 2024)

Columns and labels:
Experiment in all cases: NCI SRB growth inhibition (single dose 10 µM / five-dose)
Assay type in all cases: cell-based, human
RXF 393 = conditions: Homo sapiens; for inhibition at 10 µM: RXF 393 (Renal cancer), read-out: GI%; for GI50: RXF 393, Renal cancer, five-dose
Summary of the method: (§1)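 SRB read-out. Plating density 5000–40,000 cells/well; Tz fixed at 24 h; 5 conc. (10-fold or ½ log) + control; TCA fix, 0.4% SRB/1% AcOH 10 min RT; % growth = (Ti−Tz)/(C−Tz)×100, or (Ti−Tz)/Tz×100 when Ti<Tz.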

OVCAR-5 = conditions: Homo sapiens; for inhibition at 10 µM: OVCAR-5 (Ovarian cancer), read-out: GI%; for GI50: OVCAR-5, Ovarian cancer, five-dose
Summary of the method: as §1

A498 = conditions: Homo sapiens; for inhibition at 10 µM: A498 (Renal cancer), read-out: GI%; for GI50: A498, Renal cancer, five-dose
Summary of the method: as §1

HCT-15 = conditions: Homo sapiens; for inhibition at 10 µM: HCT-15 (Colon cancer), read-out: GI%; for GI50: HCT-15, Colon cancer, five-dose
Summary of the method: as §1

HOP-92 = conditions: Homo sapiens; for inhibition at 10 µM: HOP-92 (Non-small cell lung cancer), read-out: GI%
Summary of the method: as §1

T-47D = conditions: Homo sapiens, T47D; for inhibition at 10 µM: T-47D (Breast cancer), read-out: GI%; for GI50: T-47D, Breast cancer, five-dose
Summary of the method: as §1

U251 = conditions: Homo sapiens, U-251; for inhibition at 10 µM: U251 (CNS cancer), read-out: GI%; for GI50: U251, CNS cancer, five-dose
Summary of the method: as §1

SW-620 = conditions: Homo sapiens; for inhibition at 10 µM: SW-620 (Colon cancer), read-out: GI%; for GI50: SW-620, Colon cancer, five-dose
Summary of the method: as §1

PC-3 = conditions: Homo sapiens; for inhibition at 10 µM: PC-3 (Prostate cancer), read-out: GI%
Summary of the method: as §1

NCI-H460 = conditions: Homo sapiens; for inhibition at 10 µM: NCI-H460 (Non-small cell lung cancer), read-out: GI%; for GI50: NCI-H460, Non-small cell lung cancer, five-dose
Summary of the method: as §1

OVCAR-3 = conditions: Homo sapiens; for inhibition at 10 µM: OVCAR-3 (Ovarian cancer), read-out: GI%; for GI50: OVCAR-3, Ovarian cancer, five-dose
Summary of the method: as §1

MOLT-4 = conditions: Homo sapiens; for inhibition at 10 µM: MOLT-4 (Leukemia), read-out: GI%; for GI50: MOLT-4, Leukemia, five-dose
Summary of the method: as §1

HCT-116 = conditions: Homo sapiens, HCT-116; for inhibition at 10 µM: read-out: GI%
Summary of the method: as §1

A549/ATCC = conditions: Homo sapiens; for inhibition at 10 µM: A549/ATCC (Non-small cell lung cancer), read-out: GI%; for GI50: A549/ATCC, Non-small cell lung cancer, five-dose
Summary of the method: as §1

HCC-2998 = conditions: Homo sapiens; for inhibition at 10 µM: HCC-2998 (Colon cancer), read-out: GI%; for GI50: HCC-2998, Colon cancer, five-dose
Summary of the method: as §1

UO-31 = conditions: Homo sapiens; for inhibition at 10 µM: UO-31 (Renal cancer), read-out: GI%; for GI50: UO-31, Renal cancer, five-dose
Summary of the method: as §1

SF-539 = conditions: Homo sapiens; for inhibition at 10 µM: SF-539 (CNS cancer), read-out: GI%; for GI50: SF-539, CNS cancer, five-dose
Summary of the method: as §1

OVCAR-8 = conditions: Homo sapiens; for inhibition at 10 µM: OVCAR-8 (Ovarian cancer), read-out: GI%; for GI50: OVCAR-8, Ovarian cancer, five-dose
Summary of the method: as §1

MDA-MB-435 = conditions: Homo sapiens; for inhibition at 10 µM: MDA-MB-435 (Melanoma), read-out: GI%; for GI50: MDA-MB-435, Melanoma, five-dose
Summary of the method: as §1

SK-MEL-28 = conditions: Homo sapiens; for inhibition at 10 µM: SK-MEL-28 (Melanoma), read-out: GI%; for GI50: SK-MEL-28, Melanoma, five-dose
Summary of the method: as §1

CCRF-CEM = conditions: Homo sapiens; for inhibition at 10 µM: CCRF-CEM (Leukemia), read-out: GI%; for GI50: CCRF-CEM, Leukemia, five-dose
Summary of the method: as §1

HS 578 T = conditions: Homo sapiens; for inhibition at 10 µM: HS 578 T (Breast cancer), read-out: GI%; for GI50: HS 578 T, Breast cancer, five-dose
Summary of the method: as §1

MALME-3 M = conditions: Homo sapiens; for inhibition at 10 µM: MALME-3 M (Melanoma), read-out: GI%; for GI50: MALME-3 M, Melanoma, five-dose
Summary of the method: as §1

NCI-H322M = conditions: Homo sapiens; for inhibition at 10 µM: NCI-H322M (Non-small cell lung cancer), read-out: GI%; for GI50: NCI-H322M, Non-small cell lung cancer, five-dose
Summary of the method: as §1

MCF7 = conditions: Homo sapiens; for inhibition at 10 µM: MCF7 (Breast cancer), read-out: GI%; for GI50: MCF7, Breast cancer, five-dose
Summary of the method: as §1

SK-OV-3 = conditions: Homo sapiens; for inhibition at 10 µM: SK-OV-3 (Ovarian cancer), read-out: GI%; for GI50: SK-OV-3, Ovarian cancer, five-dose
Summary of the method: as §1

Compound COc1cccc(C=NNC(=O)c2ccc3[nH]c(-c4ccc(Cl)cc4)nc3c2)c1 [8q, 2-(4-Chlorophenyl)-N'-(3-methoxybenzylidene)-1H-benzo[d]imidazole-5-carbohydrazide] has an inhibition at 10 µM (RXF 393) greater than 100%, a GI50 (RXF 393) of 2.06 µM and an inhibition at 10 µM (OVCAR-5) greater than 100%. It also gave a GI50 (OVCAR-5) of 5.35 µM, an inhibition at 10 µM (A498) greater than 100% and a GI50 (A498) of 15.3 µM. For the same compound, the inhibition at 10 µM (HCT-15) was 63%, the GI50 (HCT-15) was 5.52 µM and the inhibition at 10 µM (HOP-92) was greater than 100%. For the same compound, the inhibition at 10 µM (T-47D) was greater than 100%, the GI50 (T-47D) was 1.95 µM and the inhibition at 10 µM (U251) was greater than 100%. It also gave a GI50 (U251) of 2.03 µM, an inhibition at 10 µM (SW-620) greater than 100% and a GI50 (SW-620) of 2.93 µM. The inhibition at 10 µM (PC-3) was greater than 100%, the inhibition at 10 µM (NCI-H460) was greater than 100% and the GI50 (NCI-H460) was 3.34 µM. The inhibition at 10 µM (OVCAR-3) was greater than 100%, the GI50 (OVCAR-3) was 3.24 µM and the inhibition at 10 µM (MOLT-4) was 71.6%. The GI50 (MOLT-4) was 5.96 µM, the GI50 (HCT-116) was 3.06 µM and the inhibition at 10 µM (HCT-116) was greater than 100%. The inhibition at 10 µM (A549/ATCC) was greater than 100%, the GI50 (A549/ATCC) was 3.22 µM and the inhibition at 10 µM (HCC-2998) was 79.6%. It also gave a GI50 (HCC-2998) of 4.42 µM, an inhibition at 10 µM (UO-31) of 81.7% and a GI50 (UO-31) of 3.46 µM. It also gave an inhibition at 10 µM (SF-539) greater than 100%, a GI50 (SF-539) of 7.14 µM and an inhibition at 10 µM (OVCAR-8) greater than 100%. The GI50 (OVCAR-8) was 2.69 µM, the inhibition at 10 µM (MDA-MB-435) was 98.9% and the GI50 (MDA-MB-435) was 3.9 µM. For the same compound, the inhibition at 10 µM (SK-MEL-28) was greater than 100%, the GI50 (SK-MEL-28) was 2.15 µM and the inhibition at 10 µM (CCRF-CEM) was 47%. For the same compound, the GI50 (CCRF-CEM) was 1.95 µM, the inhibition at 10 µM (HS 578 T) was greater than 100% and the GI50 (HS 578 T) was 2.71 µM. It also gave an inhibition at 10 µM (MALME-3 M) greater than 100%, a GI50 (MALME-3 M) of 1.54 µM and an inhibition at 10 µM (NCI-H322M) greater than 100%. The GI50 (NCI-H322M) was 3.57 µM, the inhibition at 10 µM (MCF7) was greater than 100% and the GI50 (MCF7) was 2.57 µM. It also gave an inhibition at 10 µM (SK-OV-3) greater than 100% and a GI50 (SK-OV-3) of 2.02 µM.

COc1cccc(C=NNC(=O)c2ccc3[nH]c(-c4ccc(Cl)cc4)nc3c2)c1O [8r, 2-(4-Chlorophenyl)-N'-(2-hydroxy-3-methoxybenzylidene)-1H-benzo[d]imidazole-5-carbohydrazide] showed an inhibition at 10 µM (RXF 393) greater than 100%, a GI50 (RXF 393) of 1.41 µM and an inhibition at 10 µM (OVCAR-5) greater than 100%. It also gave a GI50 (OVCAR-5) of 2.17 µM, an inhibition at 10 µM (A498) greater than 100% and a GI50 (A498) of 12.1 µM. It also gave an inhibition at 10 µM (HCT-15) of 95.2%, a GI50 (HCT-15) of 2.72 µM and an inhibition at 10 µM (HOP-92) greater than 100%. For the same compound, the GI50 (HOP-92; HOP-92, Non-small cell lung cancer, five-dose) was 1.25 µM, the inhibition at 10 µM (T-47D) was greater than 100% and the GI50 (T-47D) was 0.6 µM. It also gave an inhibition at 10 µM (U251) greater than 100%, a GI50 (U251) of 1.5 µM and an inhibition at 10 µM (SW-620) greater than 100%. It also gave a GI50 (SW-620) of 1.32 µM, an inhibition at 10 µM (PC-3) greater than 100% and a GI50 (PC-3; PC-3, Prostate cancer, five-dose) of 1.62 µM. It also gave an inhibition at 10 µM (NCI-H460) greater than 100%, a GI50 (NCI-H460) of 1.35 µM and an inhibition at 10 µM (OVCAR-3) greater than 100%. The GI50 (OVCAR-3) was 0.56 µM, the inhibition at 10 µM (MOLT-4) was greater than 100% and the GI50 (MOLT-4) was 0.63 µM. For the same compound, the GI50 (HCT-116) was 1.19 µM, the inhibition at 10 µM (HCT-116) was greater than 100% and the inhibition at 10 µM (A549/ATCC) was greater than 100%. It also gave a GI50 (A549/ATCC) of 3.68 µM, an inhibition at 10 µM (HCC-2998) greater than 100% and a GI50 (HCC-2998) of 1.48 µM. It also gave an inhibition at 10 µM (UO-31) greater than 100%, a GI50 (UO-31) of 2.07 µM and an inhibition at 10 µM (SF-539) greater than 100%. For the same compound, the GI50 (SF-539) was 1.07 µM, the inhibition at 10 µM (OVCAR-8) was greater than 100% and the GI50 (OVCAR-8) was 1.58 µM. For the same compound, the inhibition at 10 µM (MDA-MB-435) was greater than 100%, the GI50 (MDA-MB-435) was 1.81 µM and the inhibition at 10 µM (SK-MEL-28) was greater than 100%. It also gave a GI50 (SK-MEL-28) of 1.62 µM, an inhibition at 10 µM (CCRF-CEM) greater than 100% and a GI50 (CCRF-CEM) of 0.43 µM. The inhibition at 10 µM (HS 578 T) was greater than 100%, the GI50 (HS 578 T) was 0.7 µM and the inhibition at 10 µM (MALME-3 M) was greater than 100%. It also gave a GI50 (MALME-3 M) of 1.36 µM, an inhibition at 10 µM (NCI-H322M) greater than 100% and a GI50 (NCI-H322M) of 1.59 µM. The inhibition at 10 µM (MCF7) was greater than 100%, the GI50 (MCF7) was 0.66 µM and the inhibition at 10 µM (SK-OV-3) was greater than 100%. For the same compound, the GI50 (SK-OV-3) was 2.08 µM.

COc1ccc(OC)c(C=NNC(=O)c2ccc3[nH]c(-c4ccc(Cl)cc4)nc3c2)c1 [8t, 2-(4-Chlorophenyl)-N'-(2,5-dimethoxybenzylidene)-1H-benzo[d]imidazole-5-carbohydrazide] was tested, and the inhibition at 10 µM (RXF 393) was 96.5%, the inhibition at 10 µM (OVCAR-5) was less than 5% and the inhibition at 10 µM (A498) was 56.2%. The inhibition at 10 µM (HCT-15) was 58.2%, the inhibition at 10 µM (HOP-92) was 36.6% and the inhibition at 10 µM (T-47D) was 61.8%. It also gave an inhibition at 10 µM (U251) of 25.7%, an inhibition at 10 µM (SW-620) of 7.98% and an inhibition at 10 µM (PC-3) of 58.5%. It also gave an inhibition at 10 µM (NCI-H460) of 17.5%, an inhibition at 10 µM (OVCAR-3) of 10.8% and an inhibition at 10 µM (MOLT-4) of 58.9%. For the same compound, the inhibition at 10 µM (HCT-116) was 43.1%, the inhibition at 10 µM (A549/ATCC) was 8.76% and the inhibition at 10 µM (HCC-2998) was 14.6%. The inhibition at 10 µM (UO-31) was 31.9%, the inhibition at 10 µM (SF-539) was 45.3% and the inhibition at 10 µM (OVCAR-8) was 17.2%. The inhibition at 10 µM (MDA-MB-435) was 14.3%, the inhibition at 10 µM (SK-MEL-28) was 14.6% and the inhibition at 10 µM (CCRF-CEM) was 56.1%. It also gave an inhibition at 10 µM (HS 578 T) of 48.8%, an inhibition at 10 µM (MALME-3 M) of 18.4% and an inhibition at 10 µM (NCI-H322M) of 28.9%. For the same compound, the inhibition at 10 µM (MCF7) was 48.1% and the inhibition at 10 µM (SK-OV-3) was 15.1%.
